Assay results taken from patent publication US12049439B2 (OrsoBio, Inc., priority 2018, dated 2024).

tested on: PC-3 cells; assay: PC-3 Oxygen Rate Consumption (OCR) Assay; format: cell-based; settings: Homo sapiens, 0.05 h, medium with 2% FBS, OCR at 3-min post-injection normalized to % increase over DMSO-treated cells, concentration for half-maximal OCR increase, read-out: EC50-PC3-OCR-FBS-3min
How it was run: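 PC-3 cells seeded a day before, equilibrated 1 h in XF medium with 10 mM glucose, 1 mM pyruvate, 2% FBS, non-CO2 at 37 °C. Compound injected after basal OCR reads; OCR at 3 min post-injection normalized as % increase over DMSO, EC50 = half-maximal increase; six replicates.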

Point of comparison: `CC(C)(C)S(=O)(=O)Nc1cc(C#N)ccc1C(=O)NC12CC(C(F)(F)F)(C1)C2` [Example 99, 4-cyano-2-((1,1-dimethylethyl)sulfonamido)-N-(3-(trifluoromethyl)bicyclo[1.1.1]pentan-1-yl)benzamide], EC50 1.18 µM. Against it:
- CS(=O)(=O)Nc1cc(S(F)(F)(F)(F)F)ccc1C(=O)NC12CCC(C#N)(CC1)CC2 [Example 117, N-(4-cyanobicyclo[2.2.2]octan-1-yl)-2-(methylsulfonamido)-4-(pentafluoro-λ^6-sulfanyl)benzamide] — 3.4-fold higher, 4.02 µM
- N#CC1(S(=O)(=O)Nc2ccc(Cl)cc2C(=O)NC23CCC(C(F)(F)F)(CC2)CC3)CC1 [Example 209, 5-chloro-2-((1-cyanocyclopropane)-1-sulfonamido)-N-(4-(trifluoromethyl)bicyclo[2.2.2]octan-1-yl)benzamide] — 1.8-fold lower, 0.648 µM
- CN(C)S(=O)(=O)Nc1cc(F)c(F)cc1C(=O)NC12CCC(C#N)(CC1)CC2 [Example 236, N-(4-cyanobicyclo[2.2.2]octan-1-yl)-2-((N,N-dimethylsulfamoyl)amino)-4,5-difluorobenzamide] — 21-fold higher, 25.2 µM
- CCS(=O)(=O)Nc1ccc(C(F)(F)F)cc1C(=O)NC12CCC(C#N)(CC1)CC2 [Example 120, N-(4-cyanobicyclo[2.2.2]octan-1-yl)-2-(ethylsulfonamido)-5-(trifluoromethyl)benzamide] — 6.8-fold higher, 8.01 µM
- N#CC12CCC(NC(=O)c3cc(Cl)ccc3NS(=O)(=O)CCC(F)(F)F)(CC1)CC2 [Example 221, 5-chloro-N-(4-cyanobicyclo[2.2.2]octan-1-yl)-2-((3,3,3-trifluoropropyl)sulfonamido)benzamide] — within 1.5-fold, 1.09 µM
- CS(=O)(=O)Nc1ccc(S(F)(F)(F)(F)F)cc1C(=O)NC12CCC(C#N)(CC1)CC2 [Example 167, N-(4-cyanobicyclo[2.2.2]octan-1-yl)-2-(methylsulfonamido)-5-(pentafluoro-λ^6-sulfanyl)benzamide] — 5-fold higher, 5.88 µM
- CS(=O)(=O)Nc1ccc(C(F)(F)F)cc1C(=O)NC12CCC(F)(CC1)CC2 [Example 82, N-(4-fluorobicyclo[2.2.2]octan-1-yl)-2-(methylsulfonamido)-5-(trifluoromethyl)benzamide] — 5.4-fold higher, 6.32 µM
- CC(C)S(=O)(=O)Nc1cc(C(F)(F)F)ccc1C(=O)NC12CC(c3ccccc3)(C1)C2 [Example 54, 2-((1-methylethyl)sulfonamido)-N-(3-phenylbicyclo[1.1.1]pentan-1-yl)-4-(trifluoromethyl)benzamide] — within 1.5-fold, 1.22 µM
- CCCCS(=O)(=O)Nc1ccc(C(F)(F)F)cc1C(=O)NC12CCC(C#N)(CC1)CC2 [Example 127, 2-(butylsulfonamido)-N-(4-cyanobicyclo[2.2.2]octan-1-yl)-5-(trifluoromethyl)benzamide] — 2-fold higher, 2.41 µM
- CS(=O)(=O)c1ccc(S(=O)(=O)Nc2cc(Cl)c(Cl)cc2C(=O)NC23CC(c4ccccc4)(C2)C3)cc1 [Example 93, 4,5-dichloro-2-((4-(methylsulfonyl)phenyl)sulfonamido)-N-(3-phenylbicyclo[1.1.1]pentan-1-yl)benzamide] — 2.2-fold higher, 2.64 µM
- CS(=O)(=O)Nc1ccc(C(F)(F)F)cc1C(=O)NC1CC2(CC(=O)C2)C1 [Example 195, 2-(methylsulfonamido)-N-(6-oxospiro[3.3]heptan-2-yl)-5-(trifluoromethyl)benzamide] — 57-fold higher, 67.5 µM
- CC(C)(C)S(=O)(=O)Nc1ccc(-c2ncccn2)cc1C(=O)NC12CC(C(F)(F)F)(C1)C2 [Example 100, 2-((1,1-dimethylethyl)sulfonamido)-5-(pyrimidin-2-yl)-N-(3-(trifluoromethyl)bicyclo[1.1.1]pentan-1-yl)benzamide] — 12-fold higher, 14.2 µM
- CS(=O)(=O)Nc1cc(F)ccc1C(=O)NC12C3C4C5C3C1C5C42 (centres unmarked) [Example 139, N-(cuban-1-yl)-4-fluoro-2-(methylsulfonamido)benzamide] — 20-fold higher, 23.7 µM
- CN(C)S(=O)(=O)Nc1ccc(C(F)(F)F)cc1C(=O)NC12CC3CC(CC(C#N)(C3)C1)C2 [Example 177, N-((1R,5R)-3-cyanoadamantan-1-yl)-2-((N,N-dimethylsulfamoyl)amino)-5-(trifluoromethyl)benzamide] — 1.6-fold higher, 1.86 µM
- CS(=O)(=O)Nc1cc(Br)ccc1C(=O)NC12CC(c3ccccc3)(C1)C2 [Example 49, 4-bromo-2-(methylsulfonamido)-N-(3-phenylbicyclo[1.1.1]pentan-1-yl)benzamide] — 4.2-fold higher, 4.99 µM
- CS(=O)(=O)Nc1ccc(S(F)(F)(F)(F)F)cc1C(=O)NC1CC2CCC(C1)O2 (centres unmarked) [Example 184, N-(8-oxabicyclo[3.2.1]octan-3-yl)-2-(methylsulfonamido)-5-(pentafluoro-λ^6-sulfanyl)benzamide] — 41-fold higher, 48.1 µM
- CS(=O)(=O)c1cccc(S(=O)(=O)Nc2cc(F)ccc2C(=O)NC23CC(C(F)(F)F)(C2)C3)c1 [Example 22, 4-fluoro-2-((3-(methylsulfonyl)phenyl)sulfonamido)-N-(3-(trifluoromethyl)bicyclo[1.1.1]pentan-1-yl)benzamide] — 8.4-fold higher, 9.97 µM
- O=C(NC12CC(C(F)(F)F)(C1)C2)c1ccccc1NS(=O)(=O)CC(F)(F)F [Example 143, 2-((2,2,2-trifluoroethyl)sulfonamido)-N-(3-(trifluoromethyl)bicyclo[1.1.1]pentan-1-yl)benzamide] — 8.6-fold higher, 10.2 µM
- CS(=O)(=O)Nc1cc(Cl)ccc1C(=O)NC12CCC(C#N)(CC1)CC2 [Example 214, 4-chloro-N-(4-cyanobicyclo[2.2.2]octan-1-yl)-2-(methylsulfonamido)benzamide] — 22-fold higher, 26.3 µM
- CCS(=O)(=O)Nc1cc(C(F)(F)F)ccc1C(=O)NC12CC(C(F)(F)F)(C1)C2 [Example 116, 2-(ethylsulfonamido)-4-(trifluoromethyl)-N-(3-(trifluoromethyl)bicyclo[1.1.1]pentan-1-yl)benzamide] — within 1.5-fold, 1.58 µM
- Cc1ncsc1CCS(=O)(=O)Nc1ccc(C(F)(F)F)cc1C(=O)NC12CCC(F)(CC1)CC2 [Example 201, N-(4-fluorobicyclo[2.2.2]octan-1-yl)-2-((2-(4-methylthiazol-5-yl)ethyl)sulfonamido)-5-(trifluoromethyl)benzamide] — within 1.5-fold, 1.29 µM
- COc1ccc(C(=O)NC23CC(c4ccccc4)(C2)C3)c(NS(=O)(=O)c2ccc(S(C)(=O)=O)cc2)c1 [Example 89, 4-methoxy-2-((4-(methylsulfonyl)phenyl)sulfonamido)-N-(3-phenylbicyclo[1.1.1]pentan-1-yl)benzamide] — 23-fold higher, 26.7 µM
- CS(=O)(=O)N1C2CCC1CC(NC(=O)c1ccc(F)cc1NS(=O)(=O)CCC(F)(F)F)C2 (centres unmarked) [Example 217, 4-fluoro-N-(8-(methylsulfonyl)-8-azabicyclo[3.2.1]octan-3-yl)-2-((3,3,3-trifluoropropyl)sulfonamido)benzamide] — 95-fold higher, 112 µM
- CCS(=O)(=O)Nc1cc(F)c(F)cc1C(=O)NC12CCC(C#N)(CC1)CC2 [Example 216, N-(4-cyanobicyclo[2.2.2]octan-1-yl)-4,5-difluoro-2-(ethylsulfonamido)benzamide] — 14-fold higher, 16.9 µM
- Cn1cc(S(=O)(=O)Nc2cc(C(F)(F)F)ccc2C(=O)NC23CC(C(F)(F)F)(C2)C3)cn1 [Example 19, 2-((1-methyl-1H-pyrazole)-4-sulfonamido)-4-(trifluoromethyl)-N-(3-(trifluoromethyl)bicyclo[1.1.1]pentan-1-yl)benzamide] — 5.4-fold higher, 6.41 µM
- CS(=O)(=O)Nc1ccccc1C(=O)NC12CC(C(F)(F)F)(C1)C2 [Example 138, 2-(methylsulfonamido)-N-(3-(trifluoromethyl)bicyclo[1.1.1]pentan-1-yl)benzamide] — higher, ≥ 100 µM
- CS(=O)(=O)c1ccc(S(=O)(=O)Nc2cc(C(F)(F)F)ccc2C(=O)NC23CC(C#N)(C2)C3)cc1 [Example 18, N-(3-cyanobicyclo[1.1.1]pentan-1-yl)-2-((4-(methylsulfonyl)phenyl)sulfonamido)-4-(trifluoromethyl)benzamide] — 97-fold higher, 114 µM
- CS(=O)(=O)Nc1cc(C(F)(F)F)ccc1C(=O)NC12CCC(C#N)(CC1)CC2 [Example 168, N-(4-cyanobicyclo[2.2.2]octan-1-yl)-2-(methylsulfonamido)-4-(trifluoromethyl)benzamide] — 13-fold higher, 15 µM
- CCS(=O)(=O)c1ccc(S(=O)(=O)Nc2cc(C(F)(F)F)ccc2C(=O)NC23CC(C2)C3)cc1 [Example 27, N-(bicyclo[1.1.1]pentan-1-yl)-2-((4-(ethylsulfonyl)phenyl)sulfonamido)-4-(trifluoromethyl)benzamide] — 3.8-fold higher, 4.5 µM
- N#CC12CCC(NC(=O)c3ccc(SC(F)(F)F)cc3NS(=O)(=O)C3(C#N)CC3)(CC1)CC2 [Example 226, N-(4-cyanobicyclo[2.2.2]octan-1-yl)-2-((1-cyanocyclopropane)-1-sulfonamido)-4-((trifluoromethyl)thio)benzamide] — 6-fold higher, 7.1 µM
- CS(=O)(=O)Nc1ccc(S(=O)(=O)Nc2cc(C(F)(F)F)ccc2C(=O)NC23CC(C(F)(F)F)(C2)C3)cc1 [Example 107, 2-((4-(methylsulfonamido)phenyl)sulfonamido)-4-(trifluoromethyl)-N-(3-(trifluoromethyl)bicyclo[1.1.1]pentan-1-yl)benzamide] — 26-fold higher, 30.6 µM
- COCCS(=O)(=O)Nc1ccc(C(F)(F)F)cc1C(=O)NC12CCC(C#N)(CC1)CC2 [Example 128, N-(4-cyanobicyclo[2.2.2]octan-1-yl)-2-((2-methoxyethyl)sulfonamido)-5-(trifluoromethyl)benzamide] — 13-fold higher, 15.4 µM
- O=C(NC12CC(C(F)(F)F)(C1)C2)c1cc(C(F)(F)F)ccc1NS(=O)(=O)C1CCS(=O)(=O)CC1 [Example 162, 2-((1,1-dioxidotetrahydro-2H-thiopyran)-4-sulfonamido)-5-(trifluoromethyl)-N-(3-(trifluoromethyl)bicyclo[1.1.1]pentan-1-yl)benzamide] — 29-fold higher, 34.1 µM
- O=C(NC12CC(C(F)(F)F)(C1)C2)c1cc(C(F)(F)F)ccc1NS(=O)(=O)C1COC1 [Example 73, 2-(oxetane-3-sulfonamido)-5-(trifluoromethyl)-N-(3-(trifluoromethyl)bicyclo[1.1.1]pentan-1-yl)benzamide] — 2.2-fold higher, 2.62 µM
